Format in all cases: cell-based
What all share (conditions): 24 hours

Experiment [1] has as its system SPARC. Nature of the experiment: Immunoblot of SPARC in conditioned media of human TM cells. As to the method:
(§1) FIGS. 5A-E. AICAR suppresses ECM proteins in primary human TM cells under basal and TGF-β2 stimulatory conditions. (A) Representative immunoblots of ECM proteins from conditioned media (CM) of human TM cells treated for 24 hours with PBS vehicle or 0.5 mM AICAR and (B) integrated band intensities calculated from those immunoblots. (C) Representative immunoblots of ECM proteins from CM of human TM cells under stimulation with 2.5 ng/mL TGF-β2. Cells were pre-incubated for 1 hour with PBS or 0.5 mM AICAR prior to full 24-hour treatment. (D) Mean integrated band intensities. Data in panels B and D are expressed as mean±SEM (*p<0.05 vs. PBS vehicle by student t-test; n=5-7). (E) Representative 10% acrylamide gels stained with Coomassie Brilliant Blue as a loading control. […]
(§2) At the conclusion of each experiment for matricellular and ECM protein detection, conditioned media (CM) from TM cell cultures was harvested and centrifuged at 5000 rpm for 10 minutes at 4° C. The supernatant was then concentrated (Amicon Ultra-4 Filter Unit, 10 kDa; Millipore, Milford, Mass.), and protein content quantified using the DC Protein Assay kit adhering to manufacturer's protocols (Bio-Rad, Hercules, Calif.). […] Samples were then centrifuged at 14,000 rpm for 15 minutes at 4° C. and protein content quantified. […]
(A western blot detects proteins with antibodies after separation by electrophoresis.)

The test system of experiment [2] is collagen IV. Nature of the experiment: Immunoblot of collagen IV in conditioned media of human TM cells. As to the method: as §1, §2
Experiment [3] relates to TSP-1. Briefly: Immunoblot of TSP-1 in conditioned media of human TM cells. As to the method:
as §1, §2

The mark [4] stands for this setting: 0.5 mM AICAR vs PBS vehicle, basal.
[5] abbreviates: 0.5 mM AICAR, under TGF-β2 stimulation with 2.5 ng/mL.

As for `NC(=O)c1ncn([C@@H]2O[C@H](CO)[C@@H](O)[C@H]2O)c1N` [AICAR, 5-Aminoimidazole-4-carboxamide riboside], the “change in SPARC (mean integrated band intensity)” value in experiment [1] (setting [4]) is “no change”. Besides, in experiment [1] (setting [5]), the “decrease in SPARC level” value was 64%. Moreover, the “decrease in collagen IV (mean integrated band intensity)” value in experiment [2] (setting [4]) is 52%. In experiment [2] (setting [5]), the “decrease in collagen IV level” value turned out to be 34%. Further, in experiment [3] (setting [4]), the “change in TSP-1 (mean integrated band intensity)” value was “no change”. In addition, in experiment [3] (setting [5]), the “change in TSP-1 levels” value is reported as “no change”.

(Values after patent US20170020909A1, “METHODS OF TREATING GLAUCOMA USING AMP-ACTIVATED PROTEIN KINASE (AMPK) ACTIVATORS” (Massachusetts Eye and Ear Infirmary, priority 2014, published 2017).)
